Measured values published in ChEMBL document CHEMBL4507257, “Data for DCP probe ABT-100” (2021).

Tests used:
[1] = target: SNF-related serine/threonine-protein kinase (Homo sapiens) (UniProt Q9NRH2); settings: Compound concentration 1000.0 nM
[2] = target: Serine/threonine-protein kinase tousled-like 1 (Homo sapiens) (UniProt Q9UKI8); settings: Compound concentration 1000.0 nM
[3] = test system: Receptor-type tyrosine-protein kinase FLT3 (Homo sapiens), P36888 [UNDEFINED MUTATION]; settings: Compound concentration 1000.0 nM
[4] = test system: Hepatocyte growth factor receptor (Homo sapiens), P08581 [Y1235D]; settings: Compound concentration 1000.0 nM
[5] = target: Homeodomain-interacting protein kinase 1 (Homo sapiens) (UniProt Q86Z02); settings: Compound concentration 1000.0 nM
[6] = target: Inhibitor of nuclear factor kappa-B kinase subunit beta (Homo sapiens) (UniProt O14920); settings: Compound concentration 1000.0 nM
[7] = target: Fibroblast growth factor receptor 3 (Homo sapiens) (UniProt P22607); settings: Compound concentration 1000.0 nM
[8] = test system: Phosphatidylinositol 4,5-bisphosphate 3-kinase catalytic subunit alpha isoform (Homo sapiens), P42336 [E545A]; settings: Compound concentration 1000.0 nM
[9] = test system: Tyrosine-protein kinase ABL1 (Homo sapiens), P00519 [F317I]; settings: Compound concentration 1000.0 nM
[10] = target: Ribosomal protein S6 kinase alpha-5 (Homo sapiens) (UniProt O75582); settings: Compound concentration 1000.0 nM
[11] = test system: Phosphatidylinositol 4,5-bisphosphate 3-kinase catalytic subunit alpha isoform (Homo sapiens), P42336 [M1043I]; settings: Compound concentration 1000.0 nM
[12] = target: Protein kinase C theta type (Homo sapiens) (UniProt Q04759); settings: Compound concentration 1000.0 nM
[13] = target: Cyclin-dependent kinase 5 (Homo sapiens) (UniProt Q00535); settings: Compound concentration 1000.0 nM
[14] = target: Tyrosine-protein kinase HCK (Homo sapiens) (UniProt P08631); settings: Compound concentration 1000.0 nM
[15] = target: NUAK family SNF1-like kinase 2 (Homo sapiens) (UniProt Q9H093); settings: Compound concentration 1000.0 nM
[16] = target: Calcium/calmodulin-dependent protein kinase type II subunit delta (Homo sapiens) (UniProt Q13557); settings: Compound concentration 1000.0 nM
[17] = test system: Mast/stem cell growth factor receptor Kit (Homo sapiens), P10721 [V559D,T670I]; settings: Compound concentration 1000.0 nM
[18] = target: Dual specificity protein kinase TTK (Homo sapiens) (UniProt P33981); settings: Compound concentration 1000.0 nM
[19] = test system: Tyrosine-protein kinase ABL1 (Homo sapiens), P00519 [F317L]; settings: Compound concentration 1000.0 nM
[20] = target: Atypical kinase COQ8A, mitochondrial (Homo sapiens) (UniProt Q8NI60); settings: Compound concentration 1000.0 nM
[21] = target: Serine/threonine-protein kinase Nek4 (Homo sapiens) (UniProt P51957); settings: Compound concentration 1000.0 nM
[22] = target: Protein kinase C delta type (Homo sapiens) (UniProt Q05655); settings: Compound concentration 1000.0 nM
[23] = test system: Phosphatidylinositol 4,5-bisphosphate 3-kinase catalytic subunit alpha isoform (Homo sapiens), P42336 [H1047L]; settings: Compound concentration 1000.0 nM
[24] = target: Hepatocyte growth factor receptor (Homo sapiens) (UniProt P08581); settings: Compound concentration 1000.0 nM
[25] = target: Bone morphogenetic protein receptor type-1A (Homo sapiens) (UniProt P36894); settings: Compound concentration 1000.0 nM
[26] = target: MAP kinase-activated protein kinase 5 (Homo sapiens) (UniProt Q8IW41); settings: Compound concentration 1000.0 nM
[27] = target: Serine/threonine-protein kinase MARK1 (Homo sapiens) (UniProt Q9P0L2); settings: Compound concentration 1000.0 nM
[28] = target: Mitogen-activated protein kinase kinase kinase kinase 4 (Homo sapiens) (UniProt O95819); settings: Compound concentration 1000.0 nM
[29] = target: Vascular endothelial growth factor receptor 1 (Homo sapiens) (UniProt P17948); settings: Compound concentration 1000.0 nM
[30] = target: SRSF protein kinase 1 (Homo sapiens) (UniProt Q96SB4); settings: Compound concentration 1000.0 nM
[31] = target: MAP/microtubule affinity-regulating kinase 4 (Homo sapiens) (UniProt Q96L34); settings: Compound concentration 1000.0 nM
[32] = target: Alpha-1B adrenergic receptor (Homo sapiens) (UniProt P35368); settings: Compound concentration 10.0 uM
[33] = target: Ribosomal protein S6 kinase alpha-4 (Homo sapiens) (UniProt O75676); settings: Compound concentration 1000.0 nM
[34] = target: Sigma non-opioid intracellular receptor 1 (Homo sapiens, UniProt Q99720); settings: Compound concentration 10.0 uM
[35] = target: Tyrosine-protein kinase receptor Tie-1 (Homo sapiens) (UniProt P35590); settings: Compound concentration 1000.0 nM
[36] = target: Dual specificity protein kinase CLK3 (Homo sapiens) (UniProt P49761); settings: Compound concentration 1000.0 nM
[37] = target: Casein kinase I isoform delta (Homo sapiens) (UniProt P48730); settings: Compound concentration 1000.0 nM
[38] = target: Tyrosine-protein kinase Fer (Homo sapiens) (UniProt P16591); settings: Compound concentration 1000.0 nM
[39] = target: Dual specificity tyrosine-phosphorylation-regulated kinase 1A (Homo sapiens) (UniProt Q13627); settings: Compound concentration 1000.0 nM
[40] = target: Mitogen-activated protein kinase 12 (Homo sapiens) (UniProt P53778); settings: Compound concentration 1000.0 nM
[41] = target: Discoidin domain-containing receptor 2 (Homo sapiens) (UniProt Q16832); settings: Compound concentration 1000.0 nM
[42] = test system: Leucine-rich repeat serine/threonine-protein kinase 2 (Homo sapiens), Q5S007 [G2019S]; settings: Compound concentration 1000.0 nM
[43] = target: Casein kinase II subunit alpha (Homo sapiens) (UniProt P68400); settings: Compound concentration 1000.0 nM
[44] = target: Death-associated protein kinase 1 (Homo sapiens) (UniProt P53355); settings: Compound concentration 1000.0 nM
[45] = target: Serine/threonine-protein kinase TAO2 (Homo sapiens) (UniProt Q9UL54); settings: Compound concentration 1000.0 nM

Cyclin-dependent kinase 5 (Homo sapiens), sequence (Q00535 whole entry, looked up): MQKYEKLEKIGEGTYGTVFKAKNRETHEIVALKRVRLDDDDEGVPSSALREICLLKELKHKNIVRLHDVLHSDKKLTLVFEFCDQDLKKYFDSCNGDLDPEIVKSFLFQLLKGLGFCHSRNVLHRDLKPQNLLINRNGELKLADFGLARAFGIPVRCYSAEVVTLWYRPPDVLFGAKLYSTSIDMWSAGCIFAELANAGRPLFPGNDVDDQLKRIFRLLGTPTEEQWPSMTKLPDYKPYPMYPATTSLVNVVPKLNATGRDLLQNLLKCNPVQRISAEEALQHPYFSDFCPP
Serine/threonine-protein kinase MARK1 (Homo sapiens), sequence (Q9P0L2 whole entry, looked up): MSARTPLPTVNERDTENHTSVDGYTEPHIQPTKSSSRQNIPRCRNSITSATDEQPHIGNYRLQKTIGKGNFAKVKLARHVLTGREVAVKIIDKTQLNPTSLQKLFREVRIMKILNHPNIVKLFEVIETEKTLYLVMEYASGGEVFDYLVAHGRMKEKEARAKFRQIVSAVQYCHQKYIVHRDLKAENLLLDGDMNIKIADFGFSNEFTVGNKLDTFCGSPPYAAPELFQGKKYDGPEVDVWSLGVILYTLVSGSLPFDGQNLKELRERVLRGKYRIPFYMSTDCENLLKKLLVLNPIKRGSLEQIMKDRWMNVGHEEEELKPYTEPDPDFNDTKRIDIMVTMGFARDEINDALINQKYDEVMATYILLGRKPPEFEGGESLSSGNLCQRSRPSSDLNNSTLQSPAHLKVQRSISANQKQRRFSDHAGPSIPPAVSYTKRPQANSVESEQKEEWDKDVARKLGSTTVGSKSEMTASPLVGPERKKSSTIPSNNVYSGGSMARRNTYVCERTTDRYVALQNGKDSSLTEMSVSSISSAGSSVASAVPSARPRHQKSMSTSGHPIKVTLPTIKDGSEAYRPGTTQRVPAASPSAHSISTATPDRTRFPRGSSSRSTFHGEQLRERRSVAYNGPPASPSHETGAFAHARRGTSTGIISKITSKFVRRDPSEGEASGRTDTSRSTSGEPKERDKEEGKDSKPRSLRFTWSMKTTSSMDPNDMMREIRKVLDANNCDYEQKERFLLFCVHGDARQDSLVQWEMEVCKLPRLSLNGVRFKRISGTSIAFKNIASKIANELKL
Phosphatidylinositol 4,5-bisphosphate 3-kinase catalytic subunit alpha isoform (Homo sapiens), P42336 [H1047L], sequence (P42336 whole entry H1047L, canonical isoform): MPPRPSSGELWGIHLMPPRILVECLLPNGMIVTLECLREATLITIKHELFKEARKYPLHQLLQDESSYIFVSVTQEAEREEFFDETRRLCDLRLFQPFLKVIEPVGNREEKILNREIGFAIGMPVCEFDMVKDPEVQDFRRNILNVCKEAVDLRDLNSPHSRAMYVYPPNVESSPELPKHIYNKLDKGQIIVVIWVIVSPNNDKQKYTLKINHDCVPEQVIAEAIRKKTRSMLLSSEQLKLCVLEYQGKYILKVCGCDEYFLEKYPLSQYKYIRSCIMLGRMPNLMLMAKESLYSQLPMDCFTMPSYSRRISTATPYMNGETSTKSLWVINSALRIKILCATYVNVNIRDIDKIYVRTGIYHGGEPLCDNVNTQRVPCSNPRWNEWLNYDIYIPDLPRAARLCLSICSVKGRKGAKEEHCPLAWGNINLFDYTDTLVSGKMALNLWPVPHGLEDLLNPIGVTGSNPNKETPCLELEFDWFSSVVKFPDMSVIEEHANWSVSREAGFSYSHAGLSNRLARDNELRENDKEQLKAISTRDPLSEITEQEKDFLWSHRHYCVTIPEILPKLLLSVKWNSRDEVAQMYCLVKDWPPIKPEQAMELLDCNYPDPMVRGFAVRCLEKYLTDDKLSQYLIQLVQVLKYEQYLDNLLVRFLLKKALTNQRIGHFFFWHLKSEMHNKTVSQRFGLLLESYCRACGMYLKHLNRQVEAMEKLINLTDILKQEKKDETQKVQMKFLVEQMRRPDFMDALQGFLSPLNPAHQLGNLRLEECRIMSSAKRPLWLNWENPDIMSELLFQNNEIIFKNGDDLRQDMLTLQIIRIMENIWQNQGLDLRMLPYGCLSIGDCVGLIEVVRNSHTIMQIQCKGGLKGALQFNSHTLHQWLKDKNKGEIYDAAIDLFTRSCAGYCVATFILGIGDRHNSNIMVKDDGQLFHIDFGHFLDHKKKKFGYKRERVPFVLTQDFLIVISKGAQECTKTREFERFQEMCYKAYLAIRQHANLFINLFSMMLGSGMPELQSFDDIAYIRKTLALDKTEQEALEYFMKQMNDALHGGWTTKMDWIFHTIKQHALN
Death-associated protein kinase 1 (Homo sapiens), sequence (P53355 whole entry, looked up): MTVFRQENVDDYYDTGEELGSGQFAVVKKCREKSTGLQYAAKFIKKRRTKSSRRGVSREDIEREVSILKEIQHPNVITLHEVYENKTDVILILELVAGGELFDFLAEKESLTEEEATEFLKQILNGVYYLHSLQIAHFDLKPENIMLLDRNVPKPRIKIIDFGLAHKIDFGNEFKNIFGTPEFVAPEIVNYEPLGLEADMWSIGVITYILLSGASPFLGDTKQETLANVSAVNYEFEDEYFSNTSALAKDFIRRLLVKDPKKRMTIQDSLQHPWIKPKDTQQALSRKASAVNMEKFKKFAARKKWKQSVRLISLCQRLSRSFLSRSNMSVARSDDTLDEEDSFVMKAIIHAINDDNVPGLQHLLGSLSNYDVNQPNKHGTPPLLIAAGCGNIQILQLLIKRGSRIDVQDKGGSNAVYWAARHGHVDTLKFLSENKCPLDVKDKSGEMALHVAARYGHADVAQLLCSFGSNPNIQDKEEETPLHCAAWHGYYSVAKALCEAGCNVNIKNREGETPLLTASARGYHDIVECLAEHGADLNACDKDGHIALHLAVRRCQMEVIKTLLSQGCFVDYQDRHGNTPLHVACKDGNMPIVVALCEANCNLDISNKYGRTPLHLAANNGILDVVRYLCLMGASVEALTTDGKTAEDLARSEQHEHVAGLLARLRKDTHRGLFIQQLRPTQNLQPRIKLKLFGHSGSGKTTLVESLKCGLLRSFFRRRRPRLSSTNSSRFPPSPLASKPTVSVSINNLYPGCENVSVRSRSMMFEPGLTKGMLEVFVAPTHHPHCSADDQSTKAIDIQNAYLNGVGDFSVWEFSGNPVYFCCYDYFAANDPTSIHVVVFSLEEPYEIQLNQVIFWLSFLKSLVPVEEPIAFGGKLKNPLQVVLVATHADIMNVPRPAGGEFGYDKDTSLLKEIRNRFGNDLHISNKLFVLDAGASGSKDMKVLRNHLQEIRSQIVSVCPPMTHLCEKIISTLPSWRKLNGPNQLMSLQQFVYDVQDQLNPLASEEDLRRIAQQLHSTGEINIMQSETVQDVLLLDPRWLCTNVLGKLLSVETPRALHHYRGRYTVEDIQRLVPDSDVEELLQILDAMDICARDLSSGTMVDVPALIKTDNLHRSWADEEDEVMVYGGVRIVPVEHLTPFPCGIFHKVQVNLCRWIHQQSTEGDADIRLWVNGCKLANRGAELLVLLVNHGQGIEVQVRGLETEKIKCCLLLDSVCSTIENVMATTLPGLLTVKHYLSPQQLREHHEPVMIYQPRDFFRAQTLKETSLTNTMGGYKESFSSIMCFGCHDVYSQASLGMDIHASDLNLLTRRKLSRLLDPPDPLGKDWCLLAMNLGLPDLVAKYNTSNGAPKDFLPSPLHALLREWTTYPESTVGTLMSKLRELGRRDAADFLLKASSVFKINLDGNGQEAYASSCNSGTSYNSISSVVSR
Calcium/calmodulin-dependent protein kinase type II subunit delta (Homo sapiens), sequence (Q13557 whole entry): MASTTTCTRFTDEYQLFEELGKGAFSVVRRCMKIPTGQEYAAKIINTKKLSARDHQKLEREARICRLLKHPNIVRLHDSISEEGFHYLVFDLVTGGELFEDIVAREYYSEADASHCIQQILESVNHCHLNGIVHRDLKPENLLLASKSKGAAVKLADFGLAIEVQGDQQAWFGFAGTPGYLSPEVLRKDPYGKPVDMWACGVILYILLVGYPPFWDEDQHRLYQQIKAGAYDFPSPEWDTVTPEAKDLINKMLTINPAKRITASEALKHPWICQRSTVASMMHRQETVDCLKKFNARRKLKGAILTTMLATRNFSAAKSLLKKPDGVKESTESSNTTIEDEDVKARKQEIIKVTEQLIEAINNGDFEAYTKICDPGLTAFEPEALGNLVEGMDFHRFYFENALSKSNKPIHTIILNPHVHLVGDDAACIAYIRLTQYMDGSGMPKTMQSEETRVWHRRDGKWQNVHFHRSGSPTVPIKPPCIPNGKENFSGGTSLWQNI
Fibroblast growth factor receptor 3 (Homo sapiens), sequence (P22607 23-806 limits assumed): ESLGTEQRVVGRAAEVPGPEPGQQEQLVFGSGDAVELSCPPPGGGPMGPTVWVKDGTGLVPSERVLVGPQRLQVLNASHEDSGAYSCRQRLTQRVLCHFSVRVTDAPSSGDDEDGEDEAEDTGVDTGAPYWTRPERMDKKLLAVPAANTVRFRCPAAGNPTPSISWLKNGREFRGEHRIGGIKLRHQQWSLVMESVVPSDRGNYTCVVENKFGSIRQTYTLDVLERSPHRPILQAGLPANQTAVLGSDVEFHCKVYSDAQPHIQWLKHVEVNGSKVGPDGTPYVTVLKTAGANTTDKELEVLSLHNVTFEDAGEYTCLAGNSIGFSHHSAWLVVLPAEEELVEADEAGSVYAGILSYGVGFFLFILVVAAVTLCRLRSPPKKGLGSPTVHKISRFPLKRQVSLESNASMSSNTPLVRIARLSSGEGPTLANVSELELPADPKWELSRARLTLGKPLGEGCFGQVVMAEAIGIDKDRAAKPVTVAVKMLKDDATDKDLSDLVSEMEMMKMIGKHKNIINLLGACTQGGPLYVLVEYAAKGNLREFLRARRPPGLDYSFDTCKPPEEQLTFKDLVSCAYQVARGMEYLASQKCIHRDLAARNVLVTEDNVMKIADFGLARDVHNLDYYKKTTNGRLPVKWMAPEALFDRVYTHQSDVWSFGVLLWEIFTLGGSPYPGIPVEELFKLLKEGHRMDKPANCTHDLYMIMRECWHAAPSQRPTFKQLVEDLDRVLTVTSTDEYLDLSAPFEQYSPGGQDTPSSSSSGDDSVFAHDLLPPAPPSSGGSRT

Compound: Cn1cncc1[C@@](O)(COc1ccc(C#N)cc1-c1ccc(OC(F)(F)F)cc1)c1ccc(C#N)cc1 [A-108]
- residual activity [1]: 87%
- residual activity [2]: 100%
- residual activity [3]: 100%
- residual activity [4]: 100%
- residual activity [5]: 79%
- residual activity [6]: 100%
- residual activity [7]: 100%
- residual activity [8]: 86%
- residual activity [9]: 100%
- residual activity [10]: 88%
- residual activity [11]: 72%
- residual activity [12]: 100%
- residual activity [13]: 96%
- residual activity [14]: 100%
- residual activity [15]: 100%
- residual activity [16]: 95%
- residual activity [17]: 82%
- residual activity [18]: 100%
- residual activity [19]: 100%
- residual activity [20]: 100%
- residual activity [21]: 90%
- residual activity [22]: 100%
- residual activity [23]: 100%
- residual activity [24]: 94%
- residual activity [25]: 100%
- residual activity [26]: 100%
- residual activity [27]: 100%
- residual activity [28]: 100%
- residual activity [29]: 83%
- residual activity [30]: 97%
- residual activity [31]: 100%
- inhibition [32]: 5.97%
- residual activity [33]: 93%
- inhibition [34]: 92.3%
- residual activity [35]: 100%
- residual activity [36]: 100%
- residual activity [37]: 94%
- residual activity [38]: 100%
- residual activity [39]: 99%
- residual activity [40]: 100%
- residual activity [41]: 95%
- residual activity [42]: 91%
- residual activity [43]: 100%
- residual activity [44]: 100%
- residual activity [45]: 98%

Compound: Cn1cncc1[C@](O)(COc1ccc(C#N)cc1-c1ccc(OC(F)(F)F)cc1)c1ccc(C#N)cc1 [ABT-100]
- residual activity [1]: 100%
- residual activity [2]: 100%
- residual activity [3]: 98%
- residual activity [4]: 78%
- residual activity [5]: 100%
- residual activity [6]: 87%
- residual activity [7]: 83%
- residual activity [8]: 100%
- residual activity [9]: 98%
- residual activity [10]: 94%
- residual activity [11]: 100%
- residual activity [12]: 79%
- residual activity [13]: 92%
- residual activity [14]: 100%
- residual activity [15]: 100%
- residual activity [16]: 100%
- residual activity [17]: 84%
- residual activity [18]: 100%
- residual activity [19]: 100%
- residual activity [20]: 92%
- residual activity [21]: 100%
- residual activity [22]: 66%
- residual activity [23]: 100%
- residual activity [24]: 74%
- residual activity [25]: 91%
- residual activity [26]: 90%
- residual activity [27]: 57%
- residual activity [28]: 100%
- residual activity [29]: 98%
- residual activity [30]: 70%
- residual activity [31]: 56%
- inhibition [32]: 16.6%
- residual activity [33]: 89%
- inhibition [34]: 42.5%
- residual activity [35]: 85%
- residual activity [36]: 75%
- residual activity [37]: 100%
- residual activity [38]: 83%
- residual activity [39]: 81%
- residual activity [40]: 100%
- residual activity [41]: 100%
- residual activity [42]: 92%
- residual activity [43]: 63%
- residual activity [44]: 84%
- residual activity [45]: 98%
